US12559474B2, “Triazine derivatives having virus replication inhibitory activity and pharmaceutical composition comprising the same” (priority 2021, dated 2026)
Several values for one entry are separate records, joined by “and”; a condition that tells them apart may be missing. Equal values may be shown once. Read-outs that look alike come from different tables or passages of the source.

Target: SARS-CoV-2 3CL protease (Severe acute respiratory syndrome coronavirus 2, UniProt P0DTD1)
Assay: biochemical

| SMILES | IC50 (IC50) | IC50 (50% SARS-CoV-2 3CL protease inhibitory concentration, given as class symbols, read-out: IC50) [nM] |
| --- | --- | --- |
| CN(C)C(=O)c1cnc2[nH]c(=O)c(Cn3c(=O)nc(Nc4ccc5c(c4)CCO5)n(Cc4cc(F)c(F)c(F)c4)c3=O)cc2c1 [II-0315] | < 100 nM |  |
| COc1ccc(Nc2nc(=O)n(Cc3cc(C)[nH]n3)c(=O)n2Cc2cc(F)c(F)c(F)c2)cc1 [Compound I-0340] | 840 nM and 100 to 1000 nM |  |
| COc1ccc(Nc2nc(=O)n(Cc3cc(C(=O)O)c[nH]c3=O)c(=O)n2Cc2cc(F)c(F)c(F)c2)cc1 [Compound I-0089] | < 100 nM |  |
| Cn1cnc(Cn2c(=O)nc(Nc3cc4cn(CC(F)F)nc4cc3Cl)n(Cc3ccc(F)c(C#N)c3)c2=O)n1 [II-0549] | < 100 nM |  |
| Cn1cnc(Cn2c(=O)nc(Nc3cc4cn(CC5(N)CC5)nc4cc3Cl)n(Cc3cc(F)c(F)c(Cl)c3)c2=O)n1 [II-0558] |  | < 100 |
| Cn1cc2cc(Nc3nc(=O)n(Cc4nc[nH]n4)c(=O)n3Cc3cc(F)c(F)cc3F)c(Cl)cc2n1 [II-0091] | < 100 nM |  |
| Cc1cncc(-n2c(=O)nc(Nc3ccc(N=S4(=O)CCCC4)cc3)n(Cc3cc(Cl)ccc3C)c2=O)c1 [II-0618] | < 100 nM |  |
| CNC(=O)c1cnc2[nH]c(=O)c(Cn3c(=O)nc(Nc4ccc5c(c4)CCO5)n(Cc4cc(F)c(F)c(F)c4)c3=O)cc2c1 [II-0314] | < 100 nM |  |
| Cc1cncc(-n2c(=O)nc(Nc3ccc4[nH]ncc4c3)n(Cc3ccc(F)c(C#N)c3)c2=O)c1 [II-0206] | < 100 nM |  |
| CC(=O)NCCn1cc2cc(Nc3nc(=O)n(Cc4ccccn4)c(=O)n3Cc3cc(F)c(F)cc3F)c(Cl)cc2n1 [II-0248] | < 100 nM |  |
| CCS(=O)(CC)=Nc1ccc(Nc2nc(=O)n(-c3cncc(C)c3)c(=O)n2Cc2cc(Cl)ccc2C)c(Cl)c1 [II-0621] | < 100 nM |  |
| Cn1cnc(Cn2c(=O)nc(Nc3cc4cn(C)nc4cc3Cl)n(Cc3ccc(F)c(F)c3)c2=O)n1 [II-0635] | < 100 nM |  |
| CNC(=O)c1c[nH]c(=O)c(Cn2c(=O)nc(Nc3cc4c(cc3Cl)OCC4)n(Cc3cc(F)c(F)c(F)c3)c2=O)c1 [Compound I-0478] | < 100 nM |  |
| COc1ccc(Nc2nc(=O)n(Cc3cc(-c4cccnc4)c[nH]c3=O)c(=O)n2Cc2cc(F)c(F)c(F)c2)cc1 [Compound I-0386] | < 100 nM |  |
| Cn1cnc(Cn2c(=O)nc(Nc3cc4cn(CCS(C)(=O)=O)nc4cc3Cl)n(Cc3cc(Cl)c(F)cc3F)c2=O)n1 [II-0033] | < 100 nM |  |
| Cn1cnc(Cn2cc3cc(Nc4nc(=O)n(Cc5ncn(C)n5)c(=O)n4Cc4cc(F)c(F)c(Cl)c4)c(Cl)cc3n2)n1 [II-0004] | < 100 nM |  |
| COc1ccc(Nc2nc(=O)n(Cc3cn(CC(N)=O)cn3)c(=O)n2Cc2cc(F)c(F)c(F)c2)cc1 [Compound I-0416] | 3500 nM and 1000 to 10000 nM |  |
| Cn1cnc(Cn2c(=O)nc(Nc3cc4cn(CC(=O)O)nc4cc3Cl)n(Cc3cc(F)c(F)c(Cl)c3)c2=O)n1 [II-0321] | < 100 nM |  |
| Cc1nc2cc(Cl)c(Nc3nc(=O)n(Cc4ccc[nH]c4=O)c(=O)n3Cc3cc(F)cc(Cl)c3)cc2n1C [Compound I-0005] | < 100 nM |  |
| Cn1cnc(Cn2c(=O)nc(Nc3cc4cn(C)nc4cc3Cl)n(Cc3cc(Cl)cc(F)c3Cl)c2=O)n1 [II-0640] | < 100 nM |  |
| CNC(=O)Cn1cc2cc(Nc3nc(=O)n(Cc4ncn(C)n4)c(=O)n3Cc3cc(Cl)c(F)cc3F)c(Cl)cc2n1 [II-0137] | < 100 nM |  |
| Cc1nc2cc(Cl)c(Nc3nc(=O)n(Cc4ccc[nH]c4=O)c(=O)n3Cc3cc(F)c(F)c(F)c3F)cc2n1C [Compound I-0265] | < 100 nM |  |
| CNc1nc2cc(Cl)c(Nc3nc(=O)n(Cc4ncn(C)n4)c(=O)n3Cc3cc(Cl)c(F)cn3)cc2s1 [II-0266] | < 100 nM |  |

| SMILES | IC50 (IC50) | IC50 (50% SARS-CoV-2 3CL protease inhibitory concentration, given as class symbols, read-out: IC50) [nM] |
| --- | --- | --- |
| COC(=O)Cn1cnc(Cn2c(=O)nc(Nc3ccc(OC)cc3)n(Cc3cc(F)c(F)c(F)c3)c2=O)c1 [Compound I-0414] | 250 nM and 100 to 1000 nM |  |
| COc1ccc(Nc2nc(=O)n(Cc3ncn(C)n3)c(=O)n2C2(c3ccc(F)c(F)c3)CC2)cc1 [II-0644] | 3500 nM |  |
| COc1ccc(Nc2nc(=O)n(Cc3ccc[nH]c3=O)c(=O)n2Cc2nc3ccccc3s2)cc1 [Compound I-0223] | 4300 nM and 1000 to 10000 nM |  |
| COc1ncc(Nc2nc(=O)n(-c3cncc(C)c3)c(=O)n2Cc2ccc(F)c(C#N)c2)c(C)n1 [II-0124] | 3300 nM |  |
| O=c1[nH]cccc1Cn1c(=O)nc(N[C@@H]2CCN(c3ccccn3)C2)n(Cc2cc(F)c(F)c(F)c2)c1=O [II-0374] | 3500 nM |  |
| COc1ccc(Nc2nc(=O)n(Cc3ccc[nH]c3=O)c(=O)n2Cc2cc(F)c(F)c(F)c2)c(O)c1 [Compound I-0056] | < 100 nM |  |
| COc1ccc(Nc2nc(=O)n(Cc3cnc(C)[nH]c3=O)c(=O)n2Cc2cc(F)c(F)c(F)c2)cc1 [Compound I-0403] | 310 nM and 100 to 1000 nM |  |
| COc1ccc(Nc2nc(=O)n(Cc3cc(C(=O)NCc4ccn(C)n4)c[nH]c3=O)c(=O)n2Cc2cc(F)c(F)c(F)c2)cc1 [II-0325] | < 100 nM |  |
| Cn1cc2cc(Nc3nc(=O)n(Cc4cc5[nH]cnc5cn4)c(=O)n3Cc3cc(F)c(F)cc3F)c(Cl)cc2n1 [II-0256] | 160 nM |  |
| COc1ccc(Nc2nc(=O)n(Cc3ccc[nH]c3=O)c(=O)n2Cc2cc(F)cc(C#N)c2)cc1 [Compound I-0234] | < 100 nM |  |
| Cc1cnn(Cc2cc(F)c(F)cc2Cn2c(Nc3cc4cn(C)nc4cc3Cl)nc(=O)n(Cc3ncn(C)n3)c2=O)c1 [II-0637] | < 100 nM |  |
| CN(C)C(=O)CCn1cc2cc(Nc3nc(=O)n(Cc4ncn(C)n4)c(=O)n3Cc3cc(F)c(F)c(Cl)c3)c(Cl)cc2n1 [II-0561] | < 100 nM |  |
| CO[C@H]1C[C@H](Nc2nc(=O)n(Cc3ccc[nH]c3=O)c(=O)n2Cc2cc(F)c(F)c(F)c2)C1 [Compound I-0207] | 1900 nM and 1000 to 10000 nM |  |
| CCn1cc2cc(Nc3nc(=O)n(Cc4ncn(C)n4)c(=O)n3Cc3cc(Cl)c(F)cn3)c(Cl)cc2n1 [II-0268] | < 100 nM |  |
| Cc1cnc(NC23CC(Nc4nc(=O)n(Cc5ccc[nH]c5=O)c(=O)n4Cc4cc(F)c(F)c(F)c4)(C2)C3)nc1 [II-0444] | < 100 nM |  |
| O=c1cc(Cl)c(Nc2nc(=O)n(Cc3ccc[nH]c3=O)c(=O)n2Cc2cc(F)c(F)c(F)c2)c[nH]1 [Compound I-0246] | < 100 nM |  |
| Cc1cncc(-n2c(=O)nc(Nc3cc4cn(CCN)nc4cc3Cl)n(Cc3cc(Cl)ccc3Cl)c2=O)c1 [II-0611] | < 100 nM |  |
| CN(C)C(=O)c1ccc(Cn2c(=O)nc(Nc3ccc4c(c3)CCCO4)n(Cc3cc(F)c(F)c(F)c3)c2=O)c(=O)[nH]1 [II-0042] | < 100 nM |  |
| Cn1cnc(Cn2c(=O)nc(Nc3cc4cn(C)nc4cc3Cl)n(Cc3cc(Cl)c(F)cn3)c2=O)n1 [II-0542] | < 100 nM |  |
| COc1ccc(Nc2nc(=O)n(Cc3cc(C(=O)NCCN(C)C)c[nH]c3=O)c(=O)n2Cc2cc(F)c(F)c(F)c2)cc1 [Compound I-0092] | < 100 nM |  |
| O=c1[nH]cccc1Cn1c(=O)nc(NC23CC(Nc4ncc5ccccc5n4)(C2)C3)n(Cc2cc(F)c(F)c(F)c2)c1=O [II-0457] | < 100 nM |  |
| Cn1cc2cc(Nc3nc(=O)n(Cc4ccc[nH]c4=O)c(=O)n3Cc3cc(F)c(F)c(F)c3)ccc2n1 [Compound I-0143] | < 100 nM |  |
| CC(C)(C)OC(=O)NC12CC(Nc3nc(=O)n(Cc4ccc[nH]c4=O)c(=O)n3Cc3cc(F)c(F)c(F)c3)(C1)C2 [II-0209] | < 100 nM |  |

| SMILES | IC50 (IC50) | IC50 (50% SARS-CoV-2 3CL protease inhibitory concentration, given as class symbols, read-out: IC50) [nM] |
| --- | --- | --- |
| Cn1cnc(Cn2c(=O)nc(Nc3cc4c(cc3Cl)nc3n4CCN3)n(Cc3cc(F)c(F)c(Cl)c3)c2=O)n1 [II-0411] | < 100 nM |  |
| Cn1cnc2ccc(Nc3nc(=O)n(Cc4ccc[nH]c4=O)c(=O)n3Cc3cc(F)c(F)c(F)c3)cc21 [Compound I-0144] | < 100 nM |  |
| Cc1cncc(-n2c(=O)nc(Nc3cc4c(=O)n(C)cnc4cc3F)n(Cc3ccc(F)c(C#N)c3)c2=O)c1 [II-0480] | < 100 nM |  |
| CNC(=O)c1cccc(C2(Nc3nc(=O)n(Cc4ccc[nH]c4=O)c(=O)n3Cc3cc(F)c(F)c(F)c3)CCC2)c1 [II-0481] | 100 nM |  |
| Cn1cnc(Cn2c(=O)nc(Nc3cc4cn(CC(=O)N5CCCCC5)nc4cc3Cl)n(Cc3cc(F)c(F)c(Cl)c3)c2=O)n1 [II-0142] | < 100 nM |  |
| Cn1cnc(Cn2c(=O)nc(Nc3cc4cn(C)nc4cc3Cl)n(Cc3c4ccccc4cc4ccccc34)c2=O)n1 [II-0225] | 2700 nM |  |
| Cn1cnc(Cn2c(=O)nc(Nc3cc4oc(N)nc4cc3Cl)n(Cc3cc(F)c(F)c(F)c3)c2=O)n1 [II-0511] | < 100 nM |  |
| Cc1cncc(-n2c(=O)nc(Nc3ccc(N=S(C)(C)=O)cc3Cl)n(Cc3ccc(F)c(C#N)c3)c2=O)c1 [II-0575] | < 100 nM |  |
| CN(C)CCn1cc2cc(Nc3nc(=O)n(Cc4ccc[nH]c4=O)c(=O)n3Cc3cc(F)c(F)c(F)c3)c(Cl)cc2n1 [Compound I-0427] | < 100 nM |  |
| Cn1nnc2cc(Cl)c(Nc3nc(=O)n(Cc4ccc[nH]c4=O)c(=O)n3Cc3cc(F)c(F)c(F)c3)cc21 [Compound I-0440] | < 100 nM |  |
| CC(=O)Nc1ccc(C#N)cc1Cn1c(Nc2cc3cn(C)nc3cc2Cl)nc(=O)n(-c2cncc(C)c2)c1=O [II-0594] | 270 nM |  |
| CC(=O)Nc1snc2cc(Cl)c(Nc3nc(=O)n(Cc4ncn(C)n4)c(=O)n3Cc3cc(Cl)c(F)cc3F)cc12 [II-0610] | < 100 nM |  |
| CCOc1c(F)cc(F)cc1Cn1c(Nc2cc3cn(C)nc3cc2Cl)nc(=O)n(Cc2ncn(C)n2)c1=O [II-0638] | < 100 nM |  |
| COc1ccc(Nc2nc(=O)n(Cc3cc(C(=O)NCc4cnn(C)c4)c[nH]c3=O)c(=O)n2Cc2cc(F)c(F)c(F)c2)cc1 [II-0324] | < 100 nM |  |
| Cn1cc2cc(Nc3nc(=O)n(Cc4ccc[nH]c4=O)c(=O)n3Cc3cc(F)cc(C#N)c3)c(Cl)cc2n1 [Compound I-0268] | < 100 nM |  |
| Cn1cc2cc(Nc3nc(=O)n(Cc4cc(C(=O)NC5CC5)c[nH]c4=O)c(=O)n3Cc3cc(F)c(F)c(F)c3)c(Cl)cc2n1 [Compound I-0333] | < 100 nM |  |
| Cc1cncc(-n2c(=O)nc(Nc3cc4c(cc3C)nc(C)n4C)n(Cc3ccc(F)c(C#N)c3)c2=O)c1 [II-0358] | < 100 nM |  |
| COc1ccc(Nc2nc(=O)n(Cc3c[nH]ccc3=O)c(=O)n2Cc2cc(F)c(F)c(F)c2)cc1 [Compound I-0083] | 1800 nM and 1000 to 10000 nM |  |
| O=c1[nH]cccc1Cn1c(=O)nc(Nc2ccc(-c3cc[nH]n3)cc2)n(Cc2cc(F)c(F)c(F)c2)c1=O [Compound I-0154] | 1300 nM and 1000 to 10000 nM |  |
| Cc1nc2cc(Cl)c(Nc3nc(=O)n(Cc4ccc[nH]c4=O)c(=O)n3Cc3cc(F)c(F)c(C#N)c3)cc2n1C [Compound I-0010] | < 100 nM |  |
| CNc1nc2cc(F)c(Nc3nc(=O)n(-c4cncc(C)c4)c(=O)n3Cc3cc(F)c(F)c(Cl)c3)cc2s1 [II-0293] | < 100 nM |  |
